Values quoted from earlier work as cited in publication PMC6323428, “Elucidation of the Intestinal Absorption Mechanism of Loganin in the Human Intestinal Caco-2 Cell Model” (Evidence-based Complementary and Alternative Medicine : eCAM, 2018).

System: human intestinal Caco-2 cells
Set-up: method as in PMID 27531366
Details: Caco-2 cells model, chiefly passive diffusion; cited from earlier work

For `COC(=O)C1=CO[C@@H](O[C@@H]2O[C@H](CO)[C@@H](O)[C@H](O)[C@H]2O)[C@@H]2C(CO)=CC[C@H]12` [geniposide], the “Intestinal permeability (in words)” value is given as “good”.
